For orientation: EC50 means the concentration needed to bring the measured effect to its halfway point.

The test system of data set [1] is Mouse STC-1 cells. Briefly: STC-1 GLP-1 assay (GLP-1 secretion). Type of data set: cell-based. As to conditions: Mouse STC-1 cells, GLP-1 secretion, 2 h; read-out: Mouse STC-1 HTRF GLP-1 Activity (EC50). The method in brief: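 Mouse STC-1 cells were plated two days ahead in DMEM with 10% charcoal-dextran stripped FBS, then exposed to compound in HBSS with protease inhibitors, DPP-IV inhibitor and 0.1% fatty acid free BSA for 2 h at 37° C. Active GLP-1 in supernatant was quantified by HTRF; EC50 derived from 12-point half-log curves.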
(In general: Time-resolved FRET reads energy transfer from a long-lived donor to a nearby acceptor.)

In data set [2] the target is T1, human TGR5 receptor (Homo sapiens, UniProt Q8TDU6).
T1 construct: host or cells: CHO-K1 (hTGR5-CHO)
T1 sequence (Q8TDU6 1-330): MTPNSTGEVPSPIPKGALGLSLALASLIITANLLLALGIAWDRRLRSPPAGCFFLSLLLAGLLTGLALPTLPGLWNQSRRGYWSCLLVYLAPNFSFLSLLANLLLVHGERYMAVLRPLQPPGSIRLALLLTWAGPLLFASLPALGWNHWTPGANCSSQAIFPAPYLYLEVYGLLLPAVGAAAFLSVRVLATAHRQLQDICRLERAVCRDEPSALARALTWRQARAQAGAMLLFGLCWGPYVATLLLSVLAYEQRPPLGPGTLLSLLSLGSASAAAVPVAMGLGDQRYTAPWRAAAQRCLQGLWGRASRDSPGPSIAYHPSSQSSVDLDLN
The experiment in a line: Human TGR5 cAMP production assay (hTGR5-CHO cells, DiscoveRx cAMP XS+ kit). Type of data set: cell-based. As to conditions: luminescent cAMP assay, read-out: Human TGR5 Lum. cAMP Activity (EC50). The method in brief: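 CHO-K1 cells stably expressing hTGR5, in PBS with IBMX and cAMP antibody, treated with half-log compound dilutions for 1 h at room temperature. cAMP measured by enzyme-fragment complementation luminescence after overnight detection; EC50 values reported.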
For orientation: cAMP levels reflect the balance of adenylyl cyclase and phosphodiesterase activity.

The target of data set [3] is T2, mouse TGR5 receptor (Mus musculus, UniProt Q80SS6).
T2 construct: host or cells: HEK293-EBNA (293 c18, ATCC CRL10852)
T2 sequence (Q80SS6 1-329): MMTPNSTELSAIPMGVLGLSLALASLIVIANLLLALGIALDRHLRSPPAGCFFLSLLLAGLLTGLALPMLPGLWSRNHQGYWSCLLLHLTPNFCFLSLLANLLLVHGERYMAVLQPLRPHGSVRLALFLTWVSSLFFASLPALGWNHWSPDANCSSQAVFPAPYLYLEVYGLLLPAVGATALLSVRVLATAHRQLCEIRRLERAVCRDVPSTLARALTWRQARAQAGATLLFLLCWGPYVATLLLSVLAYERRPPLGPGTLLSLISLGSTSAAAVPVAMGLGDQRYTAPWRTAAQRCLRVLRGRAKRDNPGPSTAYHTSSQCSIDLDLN
The experiment in a line: Mouse TGR5 luminescent cAMP production assay (HEK293-EBNA cells, DiscoveRx cAMP XS+ kit). The class given is cell-based. As to conditions: HEK293-EBNA cells overexpressing mouse TGR5, luminescent cAMP assay; read-out: Mouse TGR5 Lum. cAMP Activity (EC50). The method in brief: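 HEK293-EBNA cells stably expressing mouse TGR5, resuspended in serum-free DMEM with 500 μM IBMX, were premixed 20 min with cAMP antibody, then exposed to half-log compound dilutions for 1 h at room temperature. cAMP was read by luminescent enzyme-fragment complementation (cAMP XS+) after overnight incubation; EC50 derived.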

A short description of data set [4]: Absorption vs. first pass metabolism: Cmax in ICR mice with and without 1-aminobenzotriazole (ABT) pre-treatment. Type of data set: in vivo, mouse. As to conditions: 10 mg/kg p.o., ABT 150 mg/kg 2 h before. The protocol: Absorption Vs. First Pass Metabolism
In this study, we further examined the absorption as compared to first pass metabolism of the compounds of the present invention. ICR mice (Hilltop) were pre-treated with 1-aminobenzotriazole (ABT), a nonselective inhibitor of cytochrome P450 enzymes, to inhibit Cyp450-mediated degradation of the compounds in liver.
ABT was administered at 150 mg/kg in 5 mL/kg of 0.04% ethanol in 0.5% methyl cellulose (w/v) by oral gavage, 2 hours prior to test compound administration. The compounds (i.e., Compounds 56, 268, 249, 61, 126, and 199) were administered by oral gavage at 10 mg/kg in 10 mL/kg of 20% PEG400/80% (0.5% (w/v) CMC containing 0.25% (v/v) Tween 80) (v/v), 2 hours after the ABT treatment. Blood was collected via orbital bleeding at predose, 0.25, 0.5, 1, 2, and 4 hours post-dose and the quantification of compound levels in plasma was accomplished by means of LC-MS/MS analysis as described in Example 81. Reference compound “Propranolol” that is known to be metabolized by Cyp450 was used as a positive control.
FIG. 15 depicts the Cmax (nM) of the compounds of the present invention with and without ABT pre-treatment.

A short description of data set [5]: 6-week DEXA body composition analysis in DIO mice. The class given is in vivo, mouse. As to conditions: 6 weeks BID dosing. From the text: In the next series of studies (Examples 93-99), Male DIO mice were received at 12 weeks of age (from Taconic), and were single-housed at the testing facility and acclimated for at least 2 weeks. The mice were provided a high fat diet [Research Diet D12492 (60% Fat kcal)] while in the testing facility. Before the study initiation, the animals were randomized into 5 experimental groups by body weight. The vehicle group contained only 0.5% carboxymethylcellulose (medium viscosity)+0.25% Tween-80. The second group contained 10 mg/kg of the DPP-IV inhibitor Sitagliptin while the third group contained 30 mg/kg Compound 268. The fourth group contained the combination of 10 mg/kg Sitagliptin and 30 mg/kg Compound 268. The fifth group was the positive control for weight loss, Rimonabant. All mice were dosed BID at approximately 6:00 am and again at approximately 4:00 pm. The positive control rimonabant was administered at a dose of 10 mg/kg in the afternoon and the morning dosing was vehicle (no compound).
6-Week Dexa Analysis after Multiple Weeks of Dosing Compounds
Compounds of the present invention were dosed for multiple weeks and the mice were analyzed to determine whether weight loss seen in Example 93 was due to a loss in fat or lean mass.
In this example, the protocol from Example 93 was utilized. The day of experiment, the mice were anesthetized using 2.5% avertin [tert-amyl alcohol (Aldrich #15,256-3) and 2,2,2-tribromoethanol (Aldrich # T4, 840-2)]. Their body composition was assessed using the PIXImus2 X-ray unit (GE Lunar Corporation, Madison, Wis.) connected to a computer equipped with LUNAR PIXImus2 software. The head region of each mouse was excluded from the analysis. The following measurements were automatically measured or calculated by the PIXImus2 software: bone mineral density (BMD), bone mineral content (BMC), bone area (B Area), tissue area (T Area), percent fat, and total tissue mass (TTM). Fat mass, the percentage of lean mass, and lean mass, were calculated manually as follows: % Lean=100−% Fat Lean Mass=TTM×(100−% Fat) Fat Mass=TTM×% Fat

Regarding `N#Cc1ccc(CCNC(=O)[C@@H]2CCCN2c2cc(-c3ccc(CO)cc3)nc(C(F)(F)F)n2)cc1` [Compound 146, (S)-N-(4-cyanophenethyl)-1-(6-(4-(hydroxymethyl)phenyl)-2-(trifluoromethyl)pyrimidin-4-yl)pyrrolidine-2-carboxamide], the EC50 in data set [1] was 1000 to 30000 nM; in data set [2], < 100 nM; in data set [3], < 100 nM.

In the case of `CS(=O)(=O)c1ccc(-c2cc(N3CCC[C@H]3C(=O)NCCc3ccc(C#N)cc3)nc(C(F)(F)F)n2)cc1` [Compound 152, (S)-N-(4-cyanophenethyl)-1-(6-(4-(methylsulfonyl)phenyl)-2-(trifluoromethyl)pyrimidin-4-yl)pyrrolidine-2-carboxamide], the EC50 in data set [1] was 100 to 999 nM; in data set [2], 100 to 999 nM; in data set [3], < 100 nM.

As for `O=C(NCCc1ccc(C(F)(F)F)cc1)[C@@H]1CCN1c1cc(N2CCC(CO)CC2)nc(C(F)(F)F)n1` [Compound 220, (S)-1-(6-(4-(hydroxymethyl)piperidin-1-yl)-2-(trifluoromethyl)pyrimidin-4-yl)-N-(4-(trifluoromethyl)-phenethyl)azetidine-2-carboxamide], the EC50 in data set [1], in data set [2] and in data set [3] was < 100 nM throughout.

Turning to `N#Cc1ccc(CCNC(=O)[C@@H]2CCCN(c3cc(N4CCC(CCO)CC4)nc(C(F)(F)F)n3)C2)cc1` [Compound 309, (R)-N-(4-cyanophenethyl)-1-(6-(4-(2-hydroxyethyl)piperidin-1-yl)-2-(trifluoromethyl)pyrimidin-4-yl)piperidine-3-carboxamide], the results for the EC50 in data set [1], in data set [2] and in data set [3] were 100 to 999 nM, < 100 nM and < 100 nM, respectively.

For `O=C(NCCc1ccc(C(F)(F)F)cc1)[C@@H]1CCCN(c2cc(N3CCC(CO)CC3)nc(C(F)(F)F)n2)C1` [Compound 329, (R)-1-(6-(4-(hydroxymethyl)piperidin-1-yl)-2-(trifluoromethyl)pyrimidin-4-yl)-N-(4-(trifluoromethyl)-phenethyl)piperidine-3-carboxamide], the EC50 in data set [1] was 100 to 999 nM; in data set [2], < 100 nM; in data set [3], < 100 nM.

For `CC(C)NCC(O)COc1cccc2ccccc12` (stereo not drawn) [propranolol, Propranolol], the “Cmax with versus without ABT pre-treatment” value in data set [4] is given as “significantly higher in ABT pre-treated mice”.

With `N[C@@H](CC(=O)N1CCn2c(nnc2C(F)(F)F)C1)Cc1cc(F)c(F)cc1F` [sitagliptin, Sitagliptin, reference compound], in data set [5], the “fat mass versus lean mass (DEXA)” value is reported as “due to a loss in the Fat Mass” and the “loss in weight / total tissue mass (DEXA)” value is on record as “about the same loss in weight”.

The values are drawn from patent publication US10654834B2 (Venenum Biodesign, LLC, priority 2016, dated 2020).
